Measurements from patent publication US12448388B2, “PRMT5 inhibitors and uses thereof” (Gilead Sciences, Inc., priority 2023, dated 2025).

test system: HCT116 MTAP-deleted cell lines; experiment: Cell viability assay (CellTiter-Glo, 7 days), HCT116 MTAP-deleted; type: cell-based; conditions: Homo sapiens, HCT-116; cell viability assay, HCT116 MTAP-deleted; class symbols; read-out: CC50
Summary of the method: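 PRMT5 inhibitors were serially diluted in DMSO and acoustically spotted as dose-response series into plates before cell seeding. Cells were grown with compound for 7 days at 37 °C, 5% CO2, 90% humidity, then viability was read by CellTiter-Glo luminescence and reported as CC50.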

`CN(C(=O)c1cc2c(cc1F)nc(N)c1cncn12)[C@@H]1COc2cc([C@@H]3C[C@H]3c3ccn(C(F)F)n3)ccc21` [Ff-477, 4-amino-N—((S)-6-((1R,2R)-2-(1-(difluoromethyl)-1H-pyrazol-3-yl)cyclopropyl)-2,3-dihydrobenzofuran-3-yl)-7-fluoro-N-methylimidazo[1,5-a]quinoxaline-8-carboxamide] and `CN(C(=O)c1cc2c(cc1F)nc(N)c1cncn12)[C@@H]1COc2cc(OC(F)F)c(F)cc21` [Ff-584] cannot be ordered by CC50: under 100 nM for the first, under 100 nM for the second.

First: CCN(C(=O)c1cc2c(cn1)nc(N)c1cnc(C)n12)[C@@H]1COc2cc(C(F)(F)F)ccc21 [Ff-613, (S)-4-amino-N-ethyl-1-methyl-N-(6-(trifluoromethyl)-2,3-dihydrobenzofuran-3-yl)imidazo[1,5-a]pyrido[3,4-e]pyrazine-8-carboxamide]
Second: CN(C(=O)c1cc2c(cn1)nc(N)c1cncn12)[C@@H](c1ccc(C(F)(F)F)cc1Cl)C(F)F [Ff-571, (S)-4-amino-N-(1-(2-chloro-4-(trifluoromethyl)phenyl)-2,2-difluoroethyl)-N-methylimidazo[1,5-a]pyrido[3,4-e]pyrazine-8-carboxamide]
The CC50 of the first is lower: under 100 nM for the first, 100 to 1000 nM for the second.

`CN(C(=O)c1cc2c(cc1F)nc(N)c1cncn12)[C@@H]1COc2cc(C#CC3(F)COC3)ccc21` [Ff-440, 4-amino-7-fluoro-N-[(3S)-6-[2-(3-fluorooxetan-3-yl)ethynyl]-2,3-dihydrobenzofuran-3-yl]-N-methyl-imidazo[1,5-a]quinoxaline-8-carboxamide] and `CN(C(=O)c1cc2c(cc1F)nc(N)c1cncn12)[C@@H]1COc2cc(C#CC3(F)CCOC3)ccc21` (stereo partly drawn) [Ff-446, 4-amino-7-fluoro-N-[(3S)-6-[2-(3-fluorotetrahydrofuran-3-yl)ethynyl]-2,3-dihydrobenzofuran-3-yl]-N-methyl-imidazo[1,5-a]quinoxaline-8-carboxamide] cannot be ordered by CC50: under 100 nM for the first, under 100 nM for the second.

Compared with `CN(C(=O)c1cc2c(cc1F)nc(N)c1cncn12)[C@@H]1COc2cc(C#CC3(C#N)CC3)ccc21` [Ff-445, 4-amino-N-[(3S)-6-[2-(1-cyanocyclopropyl)ethynyl]-2,3-dihydrobenzofuran-3-yl]-7-fluoro-N-methyl-imidazo[1,5-a]quinoxaline-8-carboxamide], `CO[C@@H]1Cc2cc(C(F)(F)F)ccc2[C@@H]1N(C)C(=O)c1cc2c(cc1F)nc(N)c1cncn12` [Ff-581, 4-amino-7-fluoro-N-((1S,2R)-2-methoxy-5-(trifluoromethyl)-2,3-dihydro-1H-inden-1-yl)-N-methylimidazo[1,5-a]quinoxaline-8-carboxamide] is higher in CC50: under 100 nM for the first, 100 to 1000 nM for the second.

First: Nc1nc2cc(F)c(C(=O)N3CCO[C@@H]4Cc5cc(Cl)ccc5[C@@H]43)cc2n2cncc12 [Ff-461, (4-amino-7-fluoroimidazo[1,5-a]quinoxalin-8-yl)((4aS,9aR)-7-chloro-2,3,9,9a-tetrahydroindeno[2,1-b][1,4]oxazin-4(4aH)-yl)methanone]
Second: CN(Cc1ccc(-c2cnn(C(F)F)c2)cc1Cl)C(=O)c1cc2c(cc1F)nc(N)c1cncn12 [Ff-551, 4-amino-N-(2-chloro-4-(1-(difluoromethyl)-1H-pyrazol-4-yl)benzyl)-7-fluoro-N-methylimidazo[1,5-a]quinoxaline-8-carboxamide]
The CC50 of the first is lower: under 100 nM for the first, 100 to 1000 nM for the second.

In the case of `CN(Cc1ccn(-c2ccccc2)n1)C(=O)c1cc2c(cc1F)nc(N)c1cncn12` [Ff-454, 4-amino-7-fluoro-N-methyl-N-((1-phenyl-1H-pyrazol-3-yl)methyl)imidazo[1,5-a]quinoxaline-8-carboxamide], the CC50 is reported as 100 to 1000 nM.

same assay, conditions: Homo sapiens, HCT-116; cell viability, HCT116 MTAP-deleted; class symbols; read-out: CC50

`Nc1nc2cc(F)c(C(=O)N3CCC[C@@H]4Oc5cc(OC(F)F)c(F)cc5[C@@H]43)cc2n2cncc12` (racemic) [Ff-157, rac-(4-amino-7-fluoroimidazo[1,5-a]quinoxalin-8-yl)((4aS,9bS)-7-(difluoromethoxy)-8-fluoro-3,4,4a,9b-tetrahydrobenzofuro[3,2-b]pyridin-1(2H)-yl)methanone] and `Nc1nc2ccc(C(=O)N3CCC[C@@H]4Oc5cc(OC(F)(F)F)c(F)cc5[C@@H]43)cc2n2cncc12` (racemic) [Ff-339, Rac-(4-aminoimidazo[1,5-a]quinoxalin-8-yl)((4aS,9bS)-8-fluoro-7-(trifluoromethoxy)-3,4,4a,9b-tetrahydrobenzofuro[3,2-b]pyridin-1(2H)-yl)methanone] cannot be ordered by CC50: under 100 nM for the first, under 100 nM for the second.

`C[C@@H]1COC[C@H](c2ccc(C(F)(F)F)cn2)N1C(=O)c1cc2c(cn1)nc(N)c1cncn12` [Ff-142, (4-aminoimidazo[1,5-a]pyrido[3,4-e]pyrazin-8-yl)((3R,5S)-3-methyl-5-(5-(trifluoromethyl)pyridin-2-yl)morpholino)methanone] and `Nc1nc2cc(F)c(C(=O)N3CCCCC3c3ccc(C(F)(F)F)cn3)cc2n2cncc12` (centres unmarked) [Ff-133, (4-amino-7-fluoroimidazo[1,5-a]quinoxalin-8-yl)(2-(5-(trifluoromethyl)pyridin-2-yl)piperidin-1-yl)methanone] cannot be ordered by CC50: under 100 nM for the first, under 100 nM for the second.

`Nc1nc2cc(F)c(C(=O)N(Cc3ccc(C(F)(F)F)cc3F)c3cnn4c3CCC4)cc2n2cncc12` [Ff-285, 4-amino-N-(5,6-dihydro-4H-pyrrolo[1,2-b]pyrazol-3-yl)-7-fluoro-N-(2-fluoro-4-(trifluoromethyl)benzyl)imidazo[1,5-a]quinoxaline-8-carboxamide] and `Nc1nc2cc(F)c(C(=O)N(Cc3ccc(C(F)(F)F)cc3F)c3cnn(C4CC4)c3)cc2n2cncc12` [Ff-276, 4-amino-N-(1-cyclopropyl-1H-pyrazol-4-yl)-7-fluoro-N-(2-fluoro-4-(trifluoromethyl)benzyl)imidazo[1,5-a]quinoxaline-8-carboxamide] cannot be ordered by CC50: under 100 nM for the first, under 100 nM for the second.

Compared with `CN(C(=O)c1ccc2nc(N)c3cncn3c2c1)C1CCc2nc(Cl)sc21` (centres unmarked) [Ff-15, 4-amino-N-(2-chloro-5,6-dihydro-4H-cyclopenta[d]thiazol-6-yl)-N-methylimidazo[1,5-a]quinoxaline-8-carboxamide], `Nc1nc2ccc(C(=O)N3CCOC[C@@H]3c3ccc(C(F)(F)F)cc3)cc2n2cncc12` [Ff-84, (S)-(4-aminoimidazo[1,5-a]quinoxalin-8-yl)(3-(4-(trifluoromethyl)phenyl)morpholino)methanone] is lower in CC50: over 1000 nM for the first, 100 to 1000 nM for the second.

`C[C@@H]1CN(C(=O)c2cc3c(cc2F)nc(N)c2cncn23)[C@H]2c3ccc(C(F)F)c(F)c3C[C@H]2O1` [Ff-170, (4-amino-7-fluoroimidazo[1,5-a]quinoxalin-8-yl)((2R,4aS,9aR)-7-(difluoromethyl)-8-fluoro-2-methyl-2,3,9,9a-tetrahydroindeno[2,1-b][1,4]oxazin-4(4aH)-yl)methanone] and `C[C@@H]1C[C@@H]2Oc3cc(C(F)(F)F)ccc3[C@@H]2N(C(=O)c2cc3c(cc2F)nc(N)c2cncn23)C1` [Ff-251, (4-amino-7-fluoroimidazo[1,5-a]quinoxalin-8-yl)((3R,4aS,9bS)-3-methyl-7-(trifluoromethyl)-3,4,4a,9b-tetrahydrobenzofuro[3,2-b]pyridin-1(2H)-yl)methanone] cannot be ordered by CC50: under 100 nM for the first, under 100 nM for the second.

`Nc1nc2cc(F)c(C(=O)N3CCC[C@@H]4OCc5cc(-c6cnn(C(F)F)c6)ccc5[C@@H]43)cc2n2cncc12` (racemic) [Ff-296, Rac-(4-amino-7-fluoroimidazo[1,5-a]quinoxalin-8-yl)((4aS,10bS)-8-(1-(difluoromethyl)-1H-pyrazol-4-yl)-2,3,4,4a,6,10b-hexahydro-1H-isochromeno[4,3-b]pyridin-1-yl)methanone] and `Nc1nc2cc(F)c(C(=O)N3CCO[C@@H]4Cc5cc(-c6cnn(C(F)F)c6)ccc5[C@@H]43)cc2n2cncc12` [Ff-235, (4-amino-7-fluoroimidazo[1,5-a]quinoxalin-8-yl)((4aS,9aR)-7-(1-(difluoromethyl)-1H-pyrazol-4-yl)-2,3,9,9a-tetrahydroindeno[2,1-b][1,4]oxazin-4(4aH)-yl)methanone] cannot be ordered by CC50: under 100 nM for the first, under 100 nM for the second.

`CO[C@@H]1COCC[C@H]1N(Cc1ccc(C(F)(F)F)cc1F)C(=O)c1cc2c(cc1F)nc(N)c1cncn12` [Ff-273, 4-amino-7-fluoro-N-(2-fluoro-4-(trifluoromethyl)benzyl)-N-((3S,4R)-3-methoxytetrahydro-2H-pyran-4-yl)imidazo[1,5-a]quinoxaline-8-carboxamide] and `Cn1ccc(N(Cc2ccc(C(F)(F)F)cc2F)C(=O)c2cc3c(cc2F)nc(N)c2cncn23)n1` [Ff-286, 4-amino-7-fluoro-N-(2-fluoro-4-(trifluoromethyl)benzyl)-N-(1-methyl-1H-pyrazol-3-yl)imidazo[1,5-a]quinoxaline-8-carboxamide] cannot be ordered by CC50: under 100 nM for the first, under 100 nM for the second.

`CC1(C)C[C@@H]2Oc3cc(C(F)(F)F)ccc3[C@@H]2N(C(=O)c2cc3c(cc2F)nc(N)c2cncn23)C1` (racemic) [Ff-257, Rac-(4-amino-7-fluoroimidazo[1,5-a]quinoxalin-8-yl)((4aR,9bR)-3,3-dimethyl-7-(trifluoromethyl)-3,4,4a,9b-tetrahydrobenzofuro[3,2-b]pyridin-1(2H)-yl)methanone] and `Nc1nc2cc(F)c(C(=O)N3CCC[C@@H]4OCc5cc(-c6ccn(C(F)(F)F)n6)ccc5[C@@H]43)cc2n2cncc12` (racemic) [Ff-294, Rac-(4-amino-7-fluoroimidazo[1,5-a]quinoxalin-8-yl)((4aS,10bS)-8-(1-(trifluoromethyl)-1H-pyrazol-3-yl)-2,3,4,4a,6,10b-hexahydro-1H-isochromeno[4,3-b]pyridin-1-yl)methanone] cannot be ordered by CC50: under 100 nM for the first, under 100 nM for the second.

`Nc1nc2cnc(C(=O)N3CCC[C@@H]4Cc5cc(C(F)(F)F)ccc5[C@@H]43)cc2n2cncc12` (racemic) [Ff-250, Rac-(4-aminoimidazo[1,5-a]pyrido[3,4-e]pyrazin-8-yl)((4aR,9bR)-7-(trifluoromethyl)-2,3,4,4a,5,9b-hexahydro-1H-indeno[1,2-b]pyridin-1-yl)methanone] and `C[C@H]1CN(C(=O)c2cc3c(cn2)nc(N)c2cncn23)[C@H]2c3ccc(OC(F)(F)F)cc3C[C@H]2O1` (single isomer, unassigned) [Ff-186] cannot be ordered by CC50: under 100 nM for the first, under 100 nM for the second.
